“Also recorded” adds a separate entry of the source. Read-outs that look alike come from different tables or passages of the source. Marks after values point to notes of the source that are not given here. Where a SMILES comes first, the peptide text is derived from it.
Legend:
Swiss albino mice [1] = assay: Spontaneous locomotor activity; assay type: in vivo
Protocol: Swiss albino mice (∼30 - 40 g) were first placed into their respective chambers with a 20 min pre-treatment recording. Only mice showing at least 50 counts / 5 min are used in the experiments. Mice were administered saline (control), peptide (5 or 50 mg/kg) or morphine (50 mg/kg). Experimenters were blind to the identity of the drug solutions. After drug administration, the animals were placed into their individual chambers and their spontaneous locomotor activity was recorded by video tracking and the data were recorded for a period of 4 h. Statistical comparison was done by 2-way ANOVA.

Swiss albino mice [2] = assay: Rotarod test; assay type: in vivo
Protocol: Swiss albino mice (∼20-30 g) were first trained on the rotarod, which accelerated from 0-20 rpm over 5 min, prior to the experiment. Only mice that were capable of staying on the rotarod for the entire 5 min period were used in this experiment. Mice were either administered with the peptide (1 or 10 mg/kg, sublingual), or morphine (20 mg/kg, subcutaneous). After drug administration, the animals are placed on the rotarod and the time taken for the mice to slip was recorded (up to 5 min), and subsequently at 1h, 2h and 3h post peptide, and at 30 min, 1h30 min and 2h30 min post morphine. Statistical comparison was done by either Student's t-test or one-way ANOVA.

Swiss albino mice [3] = assay: GI motility (charcoal transit distance); assay type: in vivo; details: 30 min post-drug
Protocol: Swiss albino mice (30-35 g) were injected with saline, the peptide (5 mg/kg, 50 mg/kg intraperitoneal) or morphine (0.5 mg/kg, 5 mg/kg, 50 mg/kg intraperitoneal). The experimenters are blind to the identity of the solutions. All mice were administered 5 mg charcoal (0.1 ml of 50 mg/ml charcoal solution) via oral gavage immediately after drug administration. At 30 min post- drug / charcoal administration, the mice were sacrificed by cervical dislocation and the GI tract was exposed and the location of the charcoal identified. The distance the charcoal traveled in the intestine from the stomach was measured and expressed as % of total length of the GI tract.

Swiss albino mice [4] = assay: Hot plate model; assay type: in vivo; details: intraperitoneal administration, 30 min post-dose, positive control
Swiss albino mice [5] = assay: Acetic acid-induced writhing model; assay type: in vivo; details: 1 mg/kg, intraperitoneal
Protocol: Swiss albino mice (20-25 g, male) were administered with the peptide and at the appropriate post- dose time acetic acid (0.9% solution) was injected intraperitoneally (10 ml/kg). The mice were then placed in a transparent observer box and the total number of writhes per animal in the 15 min period after injection of acetic acid was recorded. A writhe is typically characterized by contractions of the abdominal musculature followed by extension of the hind limbs. Statistical comparison was done by either Student's t-test or one-way ANOVA.
At 1 h post administration time, acetic acid (0.9% solution) was injected intraperitoneally and the total number of writhes per animal was recorded, as described above. Upon completion of the experiment the animals were sacrificed and skull exposed. The accuracy of the injection was confirmed via injection of methyl-blue dye into the injection aperture left by the original injection. Only results from mice showing coloration of the ventricles are accepted.

rats [6] = assay: Elevated-plus maze test; assay type: in vivo
Source text: The Elevated-Plus Maze Test is generally used to assess anxiety level of rodents due to their natural aversion for height. Two opposite arms of the elevated-plus maze are enclosed by high walls (closed arms) while the other two are not (open arms). The test animals (rats) naturally prefer and spend more time in the closed arms.

rats [7] = assay: Open-field test (anxiety score); assay type: in vivo
Source text: The open field test is generally used to assess anxiety level of rodents due to their natural aversion of open space and thus their preference to stay near the side rather than venturing to the more open central part of the open field.
The open field was divided into 16 equal size squares (25 x 25 cm). The 4 squares at the centre are assigned a low anxiety score (0) while those at the 4 corners are assigned a high anxiety score (2). The remaining 8 squares are assigned a medium score (1). A rat entering each square will be given the score assigned to that square. The sum total obtained within the 5-min test period divided by the number of squares entered is the anxiety score for that rat. Diazepam was used as positive control. Statistical comparison was done by Student's t-test.

Swiss albino mice [8] = assay: Toxicity, multiple dose regimen, once daily for 14 days; assay type: in vivo; details: for Appearance / Body Weight Day 1 / Body Weight Day 14 / Death: Intraperitoneal, daily
Protocol: Swiss albino mice were administered with the peptide at 8 mg/kg or 80 mg/kg (intraperitoneal) once daily for 14 days. Control mice received saline. At the end of the period, all mice were killed, dissected and observed for any obvious abnormality. Weights of the major organs, including brain, heart, lung, liver, spleen and kidney, were recorded.

mice = assay: Acute high dose toxicity (oral and intravenous); assay type: in vivo
Protocol: Acute toxicity was determined by both oral and intravenous administration of the peptide. Three mice were given a dose of peptide at 2 g/kg orally by gavage, 5 ml/kg.

Swiss albino mice [9] = assay: Toxicity, single dose regimen, 14 days observation; assay type: in vivo; details: for Appearance / Body Weight Day 1 / Body Weight Day 14 / Death: intraperitoneal, single dose
Protocol: Swiss albino mice were administered with the peptide at 8 mg/kg or 80 mg/kg (intraperitoneal) on day 1 and then observed for 14 days. Control mice received saline.
At the end of the period, all mice were sacrificed, dissected and observed for any obvious abnormality. Weights of the major organs, including brain, heart, lung, liver, spleen and kidney, were recorded.

Sprague-Dawley rats = assay: Acute effect on blood pressure, heart rate and respiration rate in anesthetized rats; assay type: in vivo; details: 5 and 20 mg/kg
Protocol: Sprague-Dawley rats (∼300 g) were anesthetized and the carotid artery was cannulated for blood pressure measurement. Drugs were administered by the pre-determined route. A pulse transducer was secured across the thoracic region of the rat to allow measurement of respiration rate. Blood pressure was recorded for at least 15 min or until a relatively stable blood pressure was observed.

[10] = Pharmacokinetics: plasma concentration and bioavailability by route (LC/MS/MS); assay type: in vivo, mice; details: for bioavailability: AUC compared to intravenous route
Protocol: The peptide (1, 5, 15 and 25 mg/kg, 0.5 ml/kg) was administered sublingually to mice. Upon reaching specified time points of 1, 5, 15, 30, 60 and 120 min post-dose, each mouse was sacrificed and blood samples were collected via cardiac puncture. Plasma samples were then extracted and analyzed under LC/MS/MS. Systemic exposure of the peptide was also studied through intravenous, oral (gavage) and intraperitoneal routes.

[11] = cited from earlier work
[12] = 125 mg/kg, intravenous, only the 5 mice that survived
[13] = sublingual route (oxytocin in physiological saline solution)

In the case of `CN1CC[C@]23c4c5ccc(O)c4O[C@H]2[C@@H](O)C=C[C@H]3[C@H]1C5` [Morphine, morphine], the locomotive activities (Swiss albino mice [1]; 50 mg/kg, intraperitoneal, between 60 min and 220 min post drug administration) is reported as “significant increase in locomotive activities”, the “rotarod performance (time to slip)” value (Swiss albino mice [2]; 20 mg/kg, subcutaneous, 30 min, 1h30 min and 2h30 min post dose) is reported as “No statistical significant effects” and the “rotarod performance (time to slip)” value (Swiss albino mice [2]; 20 mg/kg, subcutaneous, 30 min post drug administration, p=0.056) is reported as “near significant decrease in performance”. For the same compound, the GI transit distance (Swiss albino mice [3]; 0.5 to 50 mg/kg intraperitoneal) was “dose-dependently decreased GI motility; also recorded: dose dependent inhibitory effect”, the ED50 (Swiss albino mice [4]; Mus musculus, ip, 0.5 h) was 0.82 mg/kg and the Emax (Swiss albino mice [4]) was 250 % of pre-dose latency. For the same compound, the “Time to first writhe” value (Swiss albino mice [5]) was 190.75* % saline control, the “Total writhes in 15 min” value (Swiss albino mice [5]) was 38.18* % saline control and the “Writhes in first 5 min” value (Swiss albino mice [5]) was 12.5* % saline control. The “Writhes in subsequent 10 min” value (Swiss albino mice [5]) was 48.56* % saline control.
With `CN1C(=O)CN=C(c2ccccc2)c2cc(Cl)ccc21` [diazepam] the “times spent in open and closed arms” value (rats [6]; compared to DMSO-controls) was “reversed the times spent in open and closed arms” and the anxiety score (rats [7]; positive control) was “decreased the anxiety score significantly”.
For `C[C@@H](O)[C@H](NC(=O)[C@@H]1CCCN1C(=O)[C@H](Cc1ccccc1)NC(=O)[C@@H]1CCCN1C(=O)[C@@H](N)CC(N)=O)C(=O)N[C@@H](Cc1c[nH]c2ccccc12)C(=O)N[C@@H](CCCNC(=N)N)C(=O)N[C@@H](CCCCN)C(=O)N[C@@H](CCCNC(=N)N)C(=O)N1CCC[C@H]1C(=O)NCC(=O)O` [the peptide, NPFPTWRKRPG] (H-NPFPTWRKRPG-OH), the Appearance (Swiss albino mice [8]; 8 mg/kg) was “normal”, the “Body Weight Day 1” value (Swiss albino mice [8]; 8 mg/kg) was 21.4 ± 0.8 g and the “Body Weight Day 14” value (Swiss albino mice [8]; 8 mg/kg) was 30.0 ± 0.4 g. For the same compound, the Death (Swiss albino mice [8]; 8 mg/kg) was “nil”, the Death (Swiss albino mice [8]; 8 mg/kg, listed as peptide) was “death of one mouse” and the Appearance (Swiss albino mice [8]; 80 mg/kg) was “normal”. The “Body Weight Day 1” value (Swiss albino mice [8]; 80 mg/kg) was 21.3 ± 0.5 g, the “Body Weight Day 14” value (Swiss albino mice [8]; 80 mg/kg) was 28.1 ± 1.2 g and the Death (Swiss albino mice [8]; 80 mg/kg) was “Nil”. For the same compound, the “organ appearance and weights” value (Swiss albino mice [8]; 8 or 80 mg/kg intraperitoneal once daily for 14 days) was “All organs appeared normal and no differences in weight were observed”, the obvious toxicity (Swiss albino mice [8]; multiple high doses up to 80 mg/kg for 14 days) was “did not cause any obvious toxicity” and the “Body Weight (g, 2 weeks postdose)” value (mice; 62.5 mg/kg, intravenous) was 34.7 ± 1.5 g. For the same compound, the “Body Weight (g, predose)” value (mice; 62.5 mg/kg, intravenous) was 30.0 ± 1.0 g, the behaviour after administration (mice; 62.5 mg/kg, intravenous) was “appeared sedated after peptide but recovered after several hours” and the mice that died (mice; 125 mg/kg intravenous) was “four out of nine”. For the same compound, the time to death (mice; 125 mg/kg intravenous) was 5 to 10 min, the “behaviour of surviving mice” value (mice; 125 mg/kg intravenous, five surviving mice) was “appeared heavily sedated for several hours” and the “Body Weight (g, 2 weeks postdose)” value (mice; [12]) was 33.6 ± 1.5 g. For the same compound, the “Body Weight (g, predose)” value (mice; [12]) was 28.6 ± 1.3 g, the behaviour after administration (mice; 2 g/kg oral by gavage) was “appeared sedated with much decreased activity” and the “time to recovery from sedation” value (mice; 2 g/kg oral, listed as peptide) was “about 1 h”. The “Body Weight (g, 2 weeks postdose)” value (mice; 2g/kg, oral) was 33.0 ± 1.7 g, the “Body Weight (g, predose)” value (mice; 2g/kg, oral) was 29.3 ± 1.5 g and the “time to recovery from sedation” value (mice; 2g/kg, oral) was ≤ 1 h. For the same compound, the LD50 (mice; administered intravenously, mice) was “about 125 mg/kg”, the locomotive activities (Swiss albino mice [1]; 5 or 50 mg/kg, within 4 h of drug administration, compared to control) was “no significant difference” and the “rotarod performance (time to slip)” value (Swiss albino mice [2]; 1 or 10 mg/kg, sublingual, 1h, 2h and 3h post dose) was “No statistical significant effects”. The Appearance (Swiss albino mice [9]; 8 mg/kg) was “normal”, the “Body Weight Day 1” value (Swiss albino mice [9]; 8 mg/kg) was 26.2 ± 0.4 g and the “Body Weight Day 14” value (Swiss albino mice [9]; 8 mg/kg) was 31.7 ± 0.5 g. The Death (Swiss albino mice [9]; 8 mg/kg) was “nil”, the Appearance (Swiss albino mice [9]; 80 mg/kg) was “normal” and the “Body Weight Day 1” value (Swiss albino mice [9]; 80 mg/kg) was 25.8 ± 0.6 g. The “Body Weight Day 14” value (Swiss albino mice [9]; 80 mg/kg) was 31.1 ± 0.7 g, the Death (Swiss albino mice [9]; 80 mg/kg) was “Nil” and the “organ appearance and weights” value (Swiss albino mice [9]; single dose 8 or 80 mg/kg intraperitoneal, day 14) was “All organs appeared normal and no differences in weight were observed”. The obvious toxicity (Swiss albino mice [9]; single high dose up to 80 mg/kg) was “did not cause any obvious toxicity”, the “time spent in the open or closed arms” value (rats [6]; 1 or 50 mg/kg, 30 min or 3 h post-dose, compared to saline) was “did not produce any significant changes” and the GI transit distance (Swiss albino mice [3]; 5 mg/kg and 50 mg/kg intraperitoneal) was “did not show any significant reduction”. The GI transit distance (Swiss albino mice [3]; 5 mg/kg and 50 mg/kg intraperitoneal, listed as The peptide) was “does not show any significant effect”, the blood pressure (Sprague-Dawley rats; intravenous route) was “dose dependent drop” and the blood pressure (Sprague-Dawley rats; intravenous route, listed as Peptide) was “decreased in blood pressure”. For the same compound, the blood pressure (Sprague-Dawley rats; sublingual or intraperitoneal routes) was “no change in blood pressure”, the blood pressure (Sprague-Dawley rats; sublingual or intraperitoneal routes, listed as peptide) was “did not cause any changes in blood pressure” and the anxiety scores (rats [7]; intraperitoneally, 1 or 50 mg/kg, compared to saline control) was “did not show any effect on the anxiety scores”. The plasma concentration ([10]; 1 hour after administration, other routes of administration) was “approximately undetectable”, the bioavailability ([10]; intraperitoneal route) was 0.5% and the level at 1 h ([10]; mouse, plasma, 25 mg/kg, 1 hour after administration, sublingual route) was > 100 ng/mL. For the same compound, the bioavailability ([10]; mouse, plasma, ip, intraperitoneal route, read-out: bioavailability) was 0.5%, the bioavailability ([10]; mouse, plasma, oral route, read-out: bioavailability) was 4% and the bioavailability ([10]; oral route) was 4%. For the same compound, the bioavailability ([10]; sublingual route) was 44% and the plasma concentration ([10]; sublingual, doses below 5 mg/kg, by 30 min after administration) was “negligible”.
For desmopressin, the bioavailability [11, 13] is listed as “about 0.25%”.
In the case of oxytocin, the bioavailability ([11]; formulation with 0.75% w/w sodium taurocholate (tablet form)) is given as 27%, the bioavailability [11, 13] is given as 0.007-0.07% and the bioavailability ([11]; sublingual route (oxytocin in physiological saline solution), listed as Oxytocin) is given as 0.007 - 0.07%.

From patent EP2476410A1, “An analgesic peptide-containing composition for transbuccal administration” (priority 2011, dated 2012)
